Data as given in patent publication US6762185B1, “Compounds useful for treatment of cancer, compositions containing the same, and methods of their use” (Choongwae Pharma Corporation, priority 2002, dated 2004).

Assays:
survivin = assay: Survivin expression in SW480 cells (RT-PCR and Western blot); assay type: cell-based, human
Protocol: FIGS. 5A and 5B. Inhibition of survivin expression by TCF4 compound in […]. FIG. 5A. Surviving mRNA (363 bp) level was assessed by RT-PCR in SW480 cell 24 hours after incubation 25 μM TCF4 compound. β-actin mRNA (564 bp) level is shown as an internal control. FIG. 5B. Survivin protein (MW 16,500) level was assessed by Western blots in SW480 using anti-survivin monoclonal antibody after TCF4 incubation with compound for 48 hrs.
Total RNA was isolated from SW480 cells treated with the TCF4 compound using Rneasy midi kit (Qiagen, Valencia, Calif., 75142). One microgram of RNA was used as a template for RT-PCR. The expression of survivin was evaluated with RT-PCR and Western blot. The primer used to detect fragments of the survivin gene was designed from published human sequences (Cancer Res., 2001, 62, 8664-8667). The sequences used were 5′-[…]-3′ and 5′-[…]-3′, which can give an amplified product of 363 bp. The RT-PCR reaction was processed by Access RT-PCR system (Promega A1260). (FIG. 5) Survivin 6E4 Monoclonal antibody (Cell signaling Technology, 2802) was used for Western blot of TCF4 compound treated SW480 cells. (FIG. 5B).

[1] = test system: CBP-mediated transcriptional activation; assay: CBP-mediated transcriptional activation, pTOPFlash with CBP and/or β-catenin cotransfection in SW480 cells; assay type: cell-based; conditions: SW480 cells cotransfected with pTOPFlash
Protocol: FIG. 2. […] SW480 cells were cotransfected with 1.1 μg of the pTOPFlash reporter, and 0.8 μg […], in the presence or absence of TCF4 compound and CBP and/or β-catenin, which are present in various concentrations(1.1 to 3.3 μg), is shown to reverse the inhibiting action of TCF4 compound on CBP-mediated transcriptional activation.
In order to determine the inhibitory effect of TCF4 compound on CBP-mediated transcriptional activation, reporter plasmid pTOPFlash (1.1 μg), CBP expression vector (1.1 to 3.3 μg), wild type beta-catenin expression vector (1.1 to 3.3 μg) and pRL-null (0.8 μg) were cotransfected into SW480. Total amount of DNA was adjusted to 6.3 μg. After 24 hours incubation, TCF4 compound was added and cells were washed and luciferase activity was measured. Firefly luciferase activity was normalized to renilla luciferase activity (FIG. 2).

SW480 cells [2] = assay: Combination with 5-FU tested against SW480 cell lines; assay type: cell-based
Protocol: It has been known from previous art that 5-FU [Fluorouracil; 5-fluoro-2,4(1H, 3H)-pyrimidinedione] can induce apoptosis in cultured oral cancer cells (D. Tong et al., Oral Oncology 36, 2000 236-241). Further, it is also known that colon cancer has a sensitivity to 5-FU (D. Arango et al., Cancer Research 61, 2001 4910-4915). In the present invention, therefore, the combination of 5-FU having established anti-cancer activity and the compounds of formula (I) of the present invention is prepared and tested against SW480 cell lines. […] Therefore, it is yet another aspect of the present invention to provide a method of treating cancer, which comprises administering to a subject a safe and effective amounts of the compound having formula (I) of claim 1 together with other anti-cancer agent such as 5-Fu.

SW480 cells [3] = assay: Soft agar cell growth and colony formation assay; assay type: cell-based; conditions: SW480 cells in soft agar, 8 days
Protocol: FIG. 7. Cell growth and colony formation assays. SW480 cells were treated with TCF4 compound. The resulting cells are placed in a soft agar plate and incubated at 37° C. in CO2 incubator for 8 days. Number of colonies were counted under microscope. Agar plates were prepared to contain 10% FBS, 2 mM L-glutamine, 0.1 mM non-essential amino acid, 1×pen/strep and 1.6% agarose for bottom layer and DMEM containing 10% FBS, 2 mM L-glutamine, 0.1 mM non-essential amino acid, 1×pen/strep for upper layer. TCF4 compound solution and upper layer solution containing agarose were mixed and SW480 cells were added and solidified. Plates were incubated 37° C. at CO2 incubator for 8 days after solidification at room temperature for 30 min and colonies were counted under microscope (FIG. 7).

[4] = test system: TCF4/β-catenin transcriptional pathway; assay: TCF4/β-catenin reporter gene assay (pTOPFlash luciferase) in SW480 cells; assay type: cell-based; conditions: 24 hours treatment, firefly normalized to renilla
Protocol: The compound having general formula (I) wherein R1 is 2-naphthyl and R2 is phenyl is used for this experiment (it is referred to as ‘TCF4 compound’ hereinafter). Each transfection was performed in duplicate and repeated at least three times. SW480 cells were transfected transiently with 4.0 μg firefly luciferase reporter plasmid (pTOPFlash) and 0.8 μg renilla luciferase reporter plasmid (pRL-null). Firefly luciferase activity was normalized to renilla luciferase activity.
SW480 cells were maintained in DMEM with 10% fetal bovine serum supplemented with non-essential amino acid and antibiotics. Transient transfections into SW480 cells were carried out by Superfect (Qiagen,301307). For TCF4/β-catenin reporter gene assay, 4 μg of pTOPFlash and 0.8 μg of pRL-null were cotransfected. After 24 hours of transfection, SW480 cells were treated with TCF4 compound at varying concentrations. Firefly luciferase and renilla luciferase activities were measured 24 hours after said TCF4 compound treatment, and the firefly luciferase activity was normalized to the renilla luciferase activity (FIG. 1).

SW480 cells [5] = assay: Bioassay for the measurement of IC50 against SW480 cells (TOPFlash/pRL-null luciferase); assay type: cell-based; conditions: Homo sapiens, 24 hrs treatment, firefly and renilla luciferase activities, read-out: IC50 against SW480 cell growth
Protocol: FIG. 8. Measurement of IC50 of TCF4 compound for SW480 cells. Cell growth inhibition on SW480 cells is measured at various concentrations of TCF4 compound in order to obtain the IC50 value. Specifically, the degree of inhibition in firefly and renilla luciferase activities by TCF4 compound was determined. […] Detailed procedures are the same as disclosed in Example 8.
SW480 cells were transfected with the usage of Superfect™ transfect reagent (Qiagen, 301307). Cells were trypsinized briefly 1 day before transfection and plated on 6 well plate (5×10^5 cells/well) so that they were 50-80% confluent on the day of transfection. Four microgram (TOPFlash) and one microgram (pRL-null) of DNAs were diluted in 150 μl of serum-free medium, and 30 μl of Superfect™ transfect reagent was added. The DNA-Superfect mixture was incubated at room temperature for 15 min, after that 1 ml of 10% FBS DMEM was added to this complex for an additional 3 hr of incubation. While complexes were forming, cells were washed with PBS twice without antibiotics. The DNA-Superfect™ transfect reagent complexes were applied to the cells before incubating at 37° C. at 5% CO2 for 3 h. After incubation, recovery medium with 10% FBS was added to bring the final volume to 1.18 ml. After 3 hr incubation, the cells were harvested and reseeded to 96 well plate (3×10^4 cells/well). […]

caspase-3 = assay: Caspase-3 activation in SW480 cells (Cbz-DEVD-R110 substrate); assay type: cell-based; conditions: SW480 cells treated 24 hours, dose dependent
Protocol: FIG. 6. TCF4 compound induces caspase-3 activation in a dose-dependent manner. SW480 cells were treated with TCF4 compound for 24 hours. Whole cell protein extracts were prepared and 100 μg aliquots of protein extracts were incubated with Cbz-DEVD-R110 substrate for 2 hours at 37° C. Relative fluorescence unit (RFU) was obtained by subtracting the unit values of the blank control from the experimental measured values. SW480 cells were treated with TCF4 compound for 24 hours, collected and washed with PBS, and lysed in 100 μl ice cold hypotonic lysis buffer which is commercially available (Promega). 100 μg of the cell extracts were incubated in reaction buffer containing Cbz-DEVD-R110 (caspase-3 substrate: Promega) at 37° C. for 2 hours (FIG. 6). It is clear the FIG. 6 that caspase-3 activity was stimulated by the presence of the TCF4 compound, in a dose dependent manner.

CBP = target: T1, CBP (Homo sapiens, UniProt Q92793); assay: Binding of 14C-TCF4 compound to nuclear extracts of SW480 transfected with CBP or β-catenin; conditions: 14C-labelled compound, nuclear lysate of transfected SW480, 4° C., 18 hours
T1 construct: expressed in transfected cells; host or cells: SW480
Protocol: FIG. 3. […] SW480 cells were transiently transfected with β-catenin or CBP expression plasmid. 48 hours after transfection, nuclear protein extracts were collected. 14C-Tcf4 was incubated with nuclear lysate.
Nuclear protein extracts from SW480 transfected with CBP expression vector or wild type β-catenin expression vector were collected using NE-PER Nuclear and Cytoplasmic Extraction Reagents (Pierce) and incubated with ^14C-TCF4 compound at 4° C. for 18 hours. Each samples were washed with Sephadex G-25 columns equilibrated with 5 mL of PBB (20 mM HEPES, pH 7.9, 60 mM NaCl, 6 mM MgCl2, 0.5 mM EDTA, 0.1% NP-40, 20% glycerol, 5 mM 2-ME, 1 mM PMSF) and protein samples eluted by centrifugation were transferred to a scintillation vial containing 2 mL of scintillation fluid. Radio activities were counted using scintillation counter (Beckman).

T1 sequence (Q92793 whole entry): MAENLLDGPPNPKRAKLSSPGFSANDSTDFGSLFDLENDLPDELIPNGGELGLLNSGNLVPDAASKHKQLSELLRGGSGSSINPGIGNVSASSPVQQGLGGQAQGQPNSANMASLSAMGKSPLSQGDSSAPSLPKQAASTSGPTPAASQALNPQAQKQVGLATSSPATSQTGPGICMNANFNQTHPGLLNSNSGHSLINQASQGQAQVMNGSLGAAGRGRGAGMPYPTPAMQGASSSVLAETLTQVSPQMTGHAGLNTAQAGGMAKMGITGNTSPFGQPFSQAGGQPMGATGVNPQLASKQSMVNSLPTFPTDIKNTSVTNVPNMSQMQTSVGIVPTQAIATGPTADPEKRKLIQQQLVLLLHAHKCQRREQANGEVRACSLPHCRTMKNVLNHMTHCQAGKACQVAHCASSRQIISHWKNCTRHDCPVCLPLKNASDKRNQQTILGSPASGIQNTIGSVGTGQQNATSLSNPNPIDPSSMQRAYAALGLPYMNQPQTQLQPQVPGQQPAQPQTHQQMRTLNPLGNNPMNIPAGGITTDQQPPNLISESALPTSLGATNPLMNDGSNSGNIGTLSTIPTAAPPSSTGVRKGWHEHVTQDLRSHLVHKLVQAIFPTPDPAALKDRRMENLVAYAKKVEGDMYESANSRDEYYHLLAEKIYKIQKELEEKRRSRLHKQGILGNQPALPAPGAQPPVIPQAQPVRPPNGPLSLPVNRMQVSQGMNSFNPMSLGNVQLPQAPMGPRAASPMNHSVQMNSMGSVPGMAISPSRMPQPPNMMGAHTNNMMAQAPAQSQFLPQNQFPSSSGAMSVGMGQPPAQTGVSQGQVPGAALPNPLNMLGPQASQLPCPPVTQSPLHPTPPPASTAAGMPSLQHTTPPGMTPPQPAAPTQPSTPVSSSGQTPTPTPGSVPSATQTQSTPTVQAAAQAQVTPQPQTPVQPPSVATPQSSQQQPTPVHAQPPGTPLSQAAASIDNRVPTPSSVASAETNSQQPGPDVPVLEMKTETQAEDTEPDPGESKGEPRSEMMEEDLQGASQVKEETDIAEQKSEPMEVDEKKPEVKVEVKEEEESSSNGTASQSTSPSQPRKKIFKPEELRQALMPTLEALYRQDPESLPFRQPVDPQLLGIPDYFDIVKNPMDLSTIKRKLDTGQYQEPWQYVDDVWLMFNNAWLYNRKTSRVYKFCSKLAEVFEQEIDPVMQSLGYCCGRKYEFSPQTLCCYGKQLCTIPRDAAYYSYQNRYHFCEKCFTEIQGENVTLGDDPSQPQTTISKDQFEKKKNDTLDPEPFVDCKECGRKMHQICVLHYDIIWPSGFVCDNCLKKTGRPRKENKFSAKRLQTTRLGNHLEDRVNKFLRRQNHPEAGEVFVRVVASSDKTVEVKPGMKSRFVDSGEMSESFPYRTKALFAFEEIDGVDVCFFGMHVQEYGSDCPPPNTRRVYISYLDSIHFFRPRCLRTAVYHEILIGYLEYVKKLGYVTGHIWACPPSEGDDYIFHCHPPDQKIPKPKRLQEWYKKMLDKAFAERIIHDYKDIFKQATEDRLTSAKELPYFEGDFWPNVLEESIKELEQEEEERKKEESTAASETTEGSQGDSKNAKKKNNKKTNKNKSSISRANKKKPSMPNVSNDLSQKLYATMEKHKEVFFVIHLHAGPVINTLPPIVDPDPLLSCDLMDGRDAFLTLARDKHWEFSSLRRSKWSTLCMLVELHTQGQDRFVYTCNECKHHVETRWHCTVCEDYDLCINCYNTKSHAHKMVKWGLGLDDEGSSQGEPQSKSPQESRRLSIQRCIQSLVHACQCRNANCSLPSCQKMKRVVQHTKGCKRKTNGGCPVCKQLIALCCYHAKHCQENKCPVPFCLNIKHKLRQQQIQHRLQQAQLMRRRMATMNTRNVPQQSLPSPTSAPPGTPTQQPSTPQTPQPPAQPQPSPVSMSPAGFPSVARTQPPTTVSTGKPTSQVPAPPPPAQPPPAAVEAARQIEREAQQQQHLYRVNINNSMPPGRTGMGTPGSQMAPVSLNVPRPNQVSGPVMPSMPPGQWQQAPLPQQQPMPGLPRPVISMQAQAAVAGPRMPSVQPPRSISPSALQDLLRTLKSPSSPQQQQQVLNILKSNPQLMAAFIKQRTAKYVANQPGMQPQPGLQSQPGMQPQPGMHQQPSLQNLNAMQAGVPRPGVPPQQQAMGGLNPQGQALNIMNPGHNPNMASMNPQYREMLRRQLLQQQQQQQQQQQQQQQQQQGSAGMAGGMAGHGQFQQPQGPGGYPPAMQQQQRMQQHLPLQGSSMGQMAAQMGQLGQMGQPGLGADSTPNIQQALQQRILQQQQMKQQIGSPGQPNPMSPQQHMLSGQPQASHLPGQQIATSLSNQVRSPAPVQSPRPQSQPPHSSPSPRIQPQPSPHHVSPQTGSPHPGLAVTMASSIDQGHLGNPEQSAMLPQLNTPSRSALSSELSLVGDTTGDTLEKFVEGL

## O=C1[C@H](Cc2ccc(O)cc2)N2C(=O)CCN(C(=O)NCc3ccccc3)[C@H]2CN1Cc1cccc2ccccc12 [TCF4 compound, 6-(4-Hydroxy-benzyl)-8-naphthalen-1-ylmethyl-4-oxo-hexahydro-pyrazino[1,2-α]pyrimidine-1-carboxylic Acid Benzylamide]
survivin; RT-PCR, 25 μM, 24 hours
  survivin mRNA expression level: Inhibits
survivin; Western blot, 48 hrs
  survivin protein expression level: Inhibits
[1]
  CBP-mediated transcriptional activation: inhibits CBP-mediated transcriptional activation
SW480 cells [2]
  inhibition of cancer cell growth in combination with 5-FU: remarkable effect for inhibiting cancer cell growth
SW480 cells [3]
  cell growth and colony formation: correlation between the dose of TCF4 compound and the inhibition of cell growth
[4]
  transcription of the TCF4 responsive reporter gene luciferase: inhibits the transcription of the TCF4 responsive reporter gene luciferase in a dose-dependent manner
SW480 cells [5]
  IC50: ~8.07 µM
caspase-3
  caspase-3 activity: stimulated
CBP
  binding to CBP: Specific binding
